From the NIST ThermoML archive (doi:10.1021/je1000796)

Legend:
[1] = 101 kPa, Liquid; for viscosity: Capillary tube (Ostwald / Ubbelohde) method
[2] = mn = molality of the nth substance listed, in mol/kg; conditions: 101 kPa, Liquid, m2 = 0; for viscosity: Capillary tube (Ostwald / Ubbelohde) method

CCO [ethanol]
[1]
Conditions	mass density [kg/m3]	viscosity [mPa·s]
278.15 K	800.5	1.629
283.15 K	797.8	1.474
288.15 K	793.9	1.333
293.15 K	790	1.21
298.15 K	785.7	1.099
303.15 K	780.9	0.9971
308.15 K	778	0.9083
313.15 K	773.3	0.828

CCO [ethanol] + COC(=O)[C@H](c1ccccc1Cl)N1CCc2sccc2C1.O=S(=O)(O)O
[2]
Conditions	mass density [kg/m3]	viscosity [mPa·s]
278.15 K	800.5	1.629
283.15 K	797.8	1.474
288.15 K	793.9	1.333
293.15 K	790	1.21
298.15 K	785.7	1.099
303.15 K	780.9	0.9971
308.15 K	778	0.9083
313.15 K	773.3	0.828

CO [methanol]
[1]
Conditions	mass density [kg/m3]	viscosity [mPa·s]
278.15 K	803	0.7418
283.15 K	798.9	0.689
288.15 K	795.2	0.641
293.15 K	792.1	0.599
298.15 K	787.9	0.5585
303.15 K	783.7	0.5199
308.15 K	779.5	0.4857
313.15 K	775.2	0.4559

CO [methanol] + COC(=O)[C@H](c1ccccc1Cl)N1CCc2sccc2C1.O=S(=O)(O)O
[2]
Conditions	mass density [kg/m3]	viscosity [mPa·s]
278.15 K	803	0.7418
283.15 K	798.9	0.689
288.15 K	795.2	0.641
293.15 K	792.1	0.599
298.15 K	787.9	0.5585
303.15 K	783.7	0.5199
308.15 K	779.5	0.4857
313.15 K	775.2	0.4559
